Entries after “also recorded” stand apart in the source; their conditions may differ.
What was measured:
Format in all cases: cell-based, mouse
[1] = test system: Hh signaling in NIH 3T3s stimulated with SAG; test: RT-qPCR of Gli1 in NIH 3T3s stimulated with SAG (epistasis study); details: NIH 3T3s stimulated with SAG; dose-responsive
Procedure: (§1) Epistasis studies were next performed to determine where in the hedgehog pathway CK2 acts. The effect of TBB was examined: (i) in NIH 3T3s stimulated with SAG, a SMO agonist, (ii) in Sufu−/− mouse embryonic fibroblasts (MEF), and (iii) in NIH 3T3 cells overexpressing GLI2 (FIG. 3d-3f).
NIH3T3s or SUFU−/− MEFs were plated in 6 well plates at 400,000 cells/well in 10% FBS media constituted of DMEM (Invitrogen11960-069) supplemented with 10% FBS (Hyclone Labs SH30070.02), pen/strep (Life Technologies 15140-122), sodium pyruvate (Invitrogen 11360-070) and glutamax (Invitrogen 35050-061). Cells were then starved in 0.5% FBS for 24 h prior to treatment with 25% ShhN conditioned media in 0.5% FBS+/− drug treatment. GliΔN were treated 48 h post transfection. Unless otherwise stated, all treatments were performed for 6 h. Cell lysis and RNA extraction was performed using Qiashredder homogenizers (Qiagen 79654) and RNEasy mini kits (qiagen 74104) as per manufacturer's instructions. RNA was quantified on a nanodrop spectrophotometer (nanoddrop technologies ND-2000C). Transcript quantification was performed using a TaqMan RNA-to-Ct 1-Step Kit (Life technologies, 4392656) and the Applied Biosystems 7500 RT-PCR system as per the manufacturer's instructions. […]

[2] = test system: Hh signaling in NIH 3T3 cells overexpressing GLI2 (HA-Gli2ΔN); test: RT-qPCR of Gli1 in NIH 3T3 cells expressing Gli2ΔN (epistasis study); details: 3T3 cells with forced expression of HA-Gli2ΔN
From the text: as §1
Sufu^−/− MEFs (conditional deletion of exons 4-8) were kindly provided by Pao-Tien Chang (UCSF). SAG (S7779), GDC-0449 (Vismodegib, S1082) and CX-4945 (Silmitasertib, S2248) was purchased from SelleckChem.com. TBB was purchased from EMD (218697). Shh-N conditional medium was made using a HEK 293 cell line that stably secretes ShhN as previously described. Myc-GL12-DN (17649, pCS2-MT-GLI2-deltaN) plasmid was purchased from Addgene (Cambridge, Mass., USA). […]
NIH3T3s or SUFU−/− MEFs were plated in 6 well plates at 400,000 cells/well in 10% FBS media constituted of DMEM (Invitrogen11960-069) supplemented with 10% FBS (Hyclone Labs SH30070.02), pen/strep (Life Technologies 15140-122), sodium pyruvate (Invitrogen 11360-070) and glutamax (Invitrogen 35050-061). […] RNA was quantified on a nanodrop spectrophotometer (nanoddrop technologies ND-2000C). Transcript quantification was performed using a TaqMan RNA-to-Ct 1-Step Kit (Life technologies, 4392656) and the Applied Biosystems 7500 RT-PCR system as per the manufacturer's instructions. […]

[3] = test system: Brd4 occupancy at Gli1 and Gli2 promoters; test: Brd4 ChIP-qPCR in NIH3T3s stimulated with SHH
Procedure: It was therefore investigated whether CK2 regulates Brd4-mediated transactivation of the Gli promoters. Chromatin immunoprecipitation (ChIP) was performed in NIH3T3s stimulated with SHH using anti-Brd4 antibodies, followed by quantitative PCR (qPCR) of regions flanking the transcription start sites within the Gli1 and Gli2 promoters.
Wildtype CD1-Elite (Charles River strain 482) P7 mice were randomized to control or treatment groups then given two injections of DMSO (control) or TBB (30 mg/kg) q12h×2. Mice were sacrificed and GNPs were isolated as described in “GNP isolation”. Chomatin immunoprecipitation was performed as previously described. GNPs were cross-linked in 1% formaldehyde for 10 minutes at RT then fixation was stopped by adding 2.5M glycine for 10 minutes. Samples were washed and stored at −80 until all samples were collected. Crosslinked cells were later thawed on ice, incubated in chilled RIPA for 10 min and sonicated 7×15 min. To prepare blocking beads, 60 uL/sample of protein G beads (Roche 11719416001) were incubated with 5% BSA on a rocker at 4 degrees for at least 1 h. […] ChIP and input DNA was quantified using Qubit DS DNA HS assay as per manufacturer's protocol (ThermoFisher Q32851). […] Library was quantified via Qubit DS DNA HS assay and library quality was determined using an Agilent 2100 Bioanalyzer. […]

Brd4 occupancy at Gli1 promoter [3]: blocked | Brd4 occupancy at Gli2 promoter [3]: blocked
SMILES: Brc1c(Br)c(Br)c2[nH]nnc2c1Br [TBB, 4,5,6,7-tetrabromo-2H-benzotriazole]
Gli1 mRNA levels (effect of inhibitor) [1]: substantially decreased; also recorded: dose dependent loss of Gli1 expression | Gli1 mRNA levels [2]: inhibited; also recorded: dose dependent loss of Gli1 expression

— patent US10213449B2, “Compositions and methods for treating medulloblastoma” (The Board of Trustees of the Leland Stanford Junior …, priority 2016, dated 2019)
